From article PMC6934184, “Selective DNA-PKcs inhibition extends the therapeutic index of localized radiotherapy and chemotherapy” (The Journal of Clinical Investigation, 2019)

Biological target: T1, PRKACB (PRKAC beta) (Homo sapiens, UniProt P22694)
T1 construct: purchased Thermo Fisher Scientific (Life Technologies) SelectScreen
Assay: SelectScreen LanthaScreen
Assay type: binding
Conditions: read-out: % displacement
Summary of the method: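 SelectScreen broad panel; activity (Z'LYTE, Adapta) plus binding formats. ATP: Km app for CSF1R Z'LYTE; 10 for CAMK1 Adapta. Readout = % per kinase.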

CN(C(=O)CN1CCOCC1)c1ccc2sc3c(-c4cccc5c(=O)cc(N6CC7CCC(C6)O7)oc45)cccc3c2c1 [NU5455] showed an inhibition at 1 µM of -6.8%.
